The results in this text go back to patent US20130109636A1, “TRI-AMINO RELEASING FULVATE” (priority 2011, published 2013).

What all share (assay type): in vivo
Data set [1] is described as follows: anti-inflammatory. The conditions noted are these: in all forms.
The nature of data set [2]: prostate. The conditions noted are these: swollen prostate.
Data set [3] in a line: hypertension. The conditions noted are these: encapsulated.
Data set [4] is described as follows: vasodilatation / acceleration of microcirculation. The source says: (§1) This acceleration of microcirculation has many positive benefits.
Data set [5] in a line: wound healing.
From the text: as §1

Data set [6] in a line: pain relief. The conditions noted are these: wounds such as burns and skin lesions.

Turning to “lithio-arginino-glycino-parabenzene-fulvate [Li-TAFA]”, the “reduction of inflammation and of resulting discomfort” value in data set [1] was “shown the ability to reduce inflammation and control the discomfort resulting from inflammation”. Besides, the prostate size result in data set [2] was “demonstrated the ability to shrink a swollen prostate to normal size”. Also, in data set [3], the reduction of hypertension entry is “demonstrated the ability to reduce hypertension” and the toxic side effects entry is given as “without toxic side effects”. The “vasodilatation qualities / acceleration of microcirculation” value in data set [4] (used topically or internally) is “exhibited vasodilatation qualities”. Moreover, the toxic side effects entry in data set [4] (used topically or internally to accelerate microcirculation) is “without toxic side effects”. In addition, the “healing of wounds, burns and chronic lesions” value in data set [5] (lesions healed: 3rd degree radiation burns, squamous and basal cell carcinoma, psoriasis, venous stasis ulcers, decubitus ulcers, deep surgical wounding, herpes) is “exhibited the ability to aid and accelerate the healing of wounds, burns (of all degrees) and several types of chronic lesions”. Moreover, in data set [5] (radiation burns of the 3rd degree), the scar formation result is “complete suppression of scar formation”. Moreover, in data set [6], the pain relief entry is reported as “demonstrated substantial pain relief, without diminishing topical sensation”.
